Test results reported in patent publication US20070129385A1, “Amorphous valganciclovir hydrochloride” (priority 2003, published 2007).
Structures can show the parent of a compound that is named as a salt.

Columns and labels:
[1] = administered orally; cited from earlier work
human cytomegalovirus = conditions: in vitro and in vivo; cited from earlier work
[2] = storage stability of the solid amorphous form; type: physicochemical
Source text: Solid amorphous valganciclovir hydrochloride is provided herein. The amorphous valganciclovir hydrochloride can be produced with no detectable crystalline valganchloride hydrochloride present, based on XRD investigations having a limit of detection of 0.5%.
The mixture of amorphous valganciclovir hydrochloride containing some crystalline form is then substantially converted to an amorphous form by dissolving it in water (optionally containing an organic solvent) followed by spray-drying of the solution as described earlier. Crystalline formation at this stage can be inhibited by storage under nitrogen in the strict absence of atmosphere or other water. The amorphous material has been found stable for up to at least 3 months with proper storage.

Compound	rate of absorption [1]	replication of human cytomegalovirus (human cytomegalovirus)	time for which the material was found stable ([2]; proper storage (under nitrogen, absence of water))	stability on storage ([2]; stored under controlled humidity conditions)	stability profile compared with the crystalline form ([2]; versus existing crystalline form)
Nc1nc(O)c2ncn(COC(CO)CO)c2n1 [Ganciclovir]	very low rate of absorption	inhibits replication of human cytomegalovirus in vitro and in vivo			
CC(C)[C@@H](N)C(=O)OCC(CO)OCn1cnc2c(O)nc(N)nc21 (stereo partly drawn) [Amorphous valganciclovir hydrochloride, L-valinate ester of 2-(2-amino-1,6-dihydro-6-oxo-purin-9-yl)-methoxy-3-hydroxy-1-propanyl hydrochloride salt]			at least 3 months	stable when stored under controlled humidity conditions	superior stability profile to the existing crystalline form
